Assays:
[1] = molecular target: protein tyrosine kinase; assay: Protein tyrosine kinase assay (Upstate test kit); assay type: biochemical; settings: for IC50: ATP concentration of 50 μM, substrate Poly (Glu, Tyr 4:1) 1 mg/ml; for Specificity ratio: IC50 protein tyrosine kinase relative to IκB kinase, > denotes better than
Protocol: As examples of the specificities of the IκB kinase inhibitors which had been discovered, their IC50 values were determined in the case of the kinase enzyme protein tyrosine kinase.
Protein tyrosine kinase activity was determined using the appropriate test kit from Upstate Biotechnologie in accordance with the manufacturer's instructions and at an ATP concentration of 50 μM. As a difference from the manufacturer's method, Multi-Screen plates (Millipore; phosphocellulose MS-PH, cat. MAPHNOB10, or Durapore PVDF, cat. MADVNOB 50), were used, together with the appropriate exhaust system, instead of phospho-cellulose filters. Poly (Glu, Tyr 4:1) (Sigma cat. P0275) was used as the test kit substrate at a test concentration of 1 mg/ml. The plates were then measured in a Wallac MicroBeta scintillation counter. 100 μM of the test substance were used in each case.
The test substance was tested in a duplicate determination. The IC50 calculations were performed using the GraFit 3.0 software package.

[2] = Blood plasma level after oral administration, male C57/BL6 mice; assay type: in vivo; settings: about 25 mg/kg orally as suspension in 0.5% HEC, sampling 0.25-8 hours
Protocol: Blood plasma level of N-[(S)-2-diphenylamino-1-(5-oxo-4,5-dihydro[1,3,4]-oxadiazol-2-yl)ethyl]-2-(2-methylaminopyrimidin-4-yl)-1H-indol-5-carboxamide.
Blood samples were taken after 0.25; 0.5; 1; 2; 4; 6 and 8 hours (sacrificial blood was withdrawn from in each case 2 animals at each of the time points mentioned). The blood samples were converted into heparin plasma. The plasma samples were stored at −20° C. until analyzed.
The plasma samples were thawed. The plasma proteins which interfered with the analysis were then precipitated with acetonitrile.
(§1) Processing: 50 μl of plasma+20 μl of internal standard (5 μg/ml)+50 μl of buffer (2 mMol ammonium formate solution, pH 2.6/acetonitrile, 40:60, v/v) were mixed for about 10 sec on a Whirlmixer. 150 μl of acetonitrile were then added and the whole was mixed once again for about 10 sec. The samples were then centrifuged (Hettich, EBA 12, about 12 000 revolutions per minute). The supernatants (in each case about 200 μl) were transferred to glass tubes. 70 μl of the supernatant were injected.
The lower detection limit of the method is 0.01 μg/mL.

[3] = molecular target: T1, IκB kinase (Homo sapiens, UniProt O14920+O15111); assay: IκB kinase ELISA; assay type: biochemical
T1 construct: endogenous in cells; host or cells: HeLa S3 (S100 extract; ammonium sulfate cut, Superose-6 fractions at 670 kDa)
T1 sequence (O14920 whole entry): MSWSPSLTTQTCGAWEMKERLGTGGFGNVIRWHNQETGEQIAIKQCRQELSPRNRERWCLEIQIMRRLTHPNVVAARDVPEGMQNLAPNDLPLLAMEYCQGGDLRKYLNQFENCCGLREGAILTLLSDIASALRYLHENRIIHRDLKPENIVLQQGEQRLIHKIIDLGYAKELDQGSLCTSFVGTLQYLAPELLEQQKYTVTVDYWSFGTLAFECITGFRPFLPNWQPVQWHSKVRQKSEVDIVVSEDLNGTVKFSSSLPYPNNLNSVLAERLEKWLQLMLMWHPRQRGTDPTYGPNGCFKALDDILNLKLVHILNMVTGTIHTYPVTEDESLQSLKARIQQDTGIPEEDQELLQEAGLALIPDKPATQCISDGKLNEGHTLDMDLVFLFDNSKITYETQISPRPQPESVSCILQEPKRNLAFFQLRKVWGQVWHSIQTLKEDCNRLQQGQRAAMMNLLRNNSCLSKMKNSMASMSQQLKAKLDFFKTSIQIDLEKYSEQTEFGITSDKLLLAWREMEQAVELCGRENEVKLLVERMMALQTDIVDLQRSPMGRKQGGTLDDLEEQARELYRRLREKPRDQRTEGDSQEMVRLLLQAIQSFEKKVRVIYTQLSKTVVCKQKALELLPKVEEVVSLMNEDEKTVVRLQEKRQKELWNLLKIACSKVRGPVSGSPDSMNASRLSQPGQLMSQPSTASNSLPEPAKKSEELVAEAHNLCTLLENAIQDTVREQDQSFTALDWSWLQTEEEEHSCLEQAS
T1 sequence (O15111 whole entry): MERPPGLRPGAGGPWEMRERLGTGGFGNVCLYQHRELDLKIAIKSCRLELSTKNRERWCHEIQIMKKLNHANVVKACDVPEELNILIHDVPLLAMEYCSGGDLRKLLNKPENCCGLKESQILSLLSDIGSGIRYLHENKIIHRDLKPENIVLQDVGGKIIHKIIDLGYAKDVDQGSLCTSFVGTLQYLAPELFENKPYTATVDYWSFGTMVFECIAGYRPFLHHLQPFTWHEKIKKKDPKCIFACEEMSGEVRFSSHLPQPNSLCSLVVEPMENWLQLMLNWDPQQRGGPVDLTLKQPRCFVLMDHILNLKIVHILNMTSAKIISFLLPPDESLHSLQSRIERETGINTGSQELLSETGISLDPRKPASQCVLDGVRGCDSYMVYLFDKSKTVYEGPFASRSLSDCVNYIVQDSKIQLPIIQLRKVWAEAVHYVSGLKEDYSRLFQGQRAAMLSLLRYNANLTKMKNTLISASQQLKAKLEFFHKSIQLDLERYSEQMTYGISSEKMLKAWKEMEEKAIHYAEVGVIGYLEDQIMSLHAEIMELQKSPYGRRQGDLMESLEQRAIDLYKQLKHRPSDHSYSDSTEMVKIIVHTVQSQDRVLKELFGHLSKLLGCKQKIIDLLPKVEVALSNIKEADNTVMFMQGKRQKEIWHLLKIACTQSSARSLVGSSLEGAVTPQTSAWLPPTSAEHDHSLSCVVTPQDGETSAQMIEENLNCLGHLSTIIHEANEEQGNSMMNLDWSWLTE
T1 sequence (Q9Y6K9 whole entry partner): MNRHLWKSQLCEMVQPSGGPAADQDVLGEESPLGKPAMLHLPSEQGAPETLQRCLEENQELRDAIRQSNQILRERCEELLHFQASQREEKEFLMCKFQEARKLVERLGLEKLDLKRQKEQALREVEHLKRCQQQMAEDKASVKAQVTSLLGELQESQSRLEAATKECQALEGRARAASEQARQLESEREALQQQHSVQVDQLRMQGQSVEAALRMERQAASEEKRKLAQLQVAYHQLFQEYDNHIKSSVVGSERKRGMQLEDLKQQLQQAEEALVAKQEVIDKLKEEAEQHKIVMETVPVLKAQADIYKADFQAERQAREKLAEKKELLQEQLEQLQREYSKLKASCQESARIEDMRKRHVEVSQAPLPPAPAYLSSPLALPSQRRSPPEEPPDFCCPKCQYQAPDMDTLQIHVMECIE

[4] = Comparison experiment: blood plasma level after oral administration, male NMRI mice; assay type: in vivo
Protocol: [drawing 27] was prepared as described in WO 01/30774 and is termed the comparison compound below. The comparison compound was administered to male NMRI mice. For this, in each case about 50 mg of the comparison compound per kg of body weight of the mice were administered orally as a suspension in 0.5% HEC (by way of a probang). Blood samples were taken after 0.25; 0.5; 1; 2; 4; 6 and 8 hours (sacrificial blood was withdrawn from in each case 2 animals at each of the time points mentioned). The blood samples were converted into heparin plasma. The plasma samples were stored at −20° C. until analyzed.
Analysis: The analysis was carried out using HPLC/UV.
as §1, with “(1% formic acid/acetonitrile,” for “(2 mMol ammonium formate solution, pH 2.6/acetonitrile,”, “min).” for “minute).”, “100” for “70”

| IC50 [3] [nM] | Specificity ratio [1] | SMILES | also measured |
| --- | --- | --- | --- |
| 50 | >200 | CNc1nccc(-c2cc3cc(C(=O)NC(CN(c4ccc(F)cc4)c4ccccn4)C(N)=O)ccc3[nH]2)n1 (stereo not drawn) [Example 30, N-{1–Carbamoyl-2-[(4-fluorophenyl)pyridin-2-ylamino]ethyl}-2-(2-methylaminopyrimidin-4-yl)-1H-indole-5-carboxaminde] |  |
| 12 | >833 | CNc1nccc(-c2cc3cc(C(=O)N[C@@H](CN(c4ccccc4)c4ccccn4)c4n[nH]c(=O)o4)ccc3[nH]2)n1 [Example 33, N-[(S)-1-(5-Oxo-4,5-dihydro-1,3,4-oxadiazol-2-yl)-2-(phenylpyridin-2-ylamino)ethyl]-2-(2-methylaminopyrimidin-4-yl)-1H-indole-5-carboxamide] |  |
| 10 | >1000 | NC(=O)C(CN(c1ccc(F)cc1)c1ccccn1)NC(=O)c1ccc2[nH]c(-c3ccnc(N)n3)cc2c1 (stereo not drawn) [Example 35, N-{1–Carbamoyl-2-[(4-fluorophenyl)pyridin-2-ylamino]ethyl}-2-(2-aminopyrimidin-4-yl)-1H-indole-5-carboxamide] |  |
| 5 | >2000 | CNc1nccc(-c2cc3cc(C(=O)NC(CN(c4ccc(F)cc4)c4ccccn4)c4nnc[nH]4)ccc3[nH]2)n1 (stereo not drawn) [Example 36, N-[2-[(4-Fluorophenyl)pyridin-2-ylamino]-1-(4H-[1,2,4]triazol-3-yl)ethyl]-2-(2-methylaminopyrimidin-4-yl)-1H-indole-5-carboxamide] |  |
| 0.8 | >12500 | CNc1nccc(-c2cc3cc(C(=O)N[C@@H](CN(c4ccccc4)c4ccccn4)C(=O)NOC)ccc3[nH]2)n1 [Example 43, N-[1-Methoxycarbamoyl-2-(phenylpyridin-2-ylamino)ethyl]-S-2-(2-methylaminopyrimidin-4-yl)-1H-indole-5-carboxamide] |  |
| 6 | >1665 | CNc1nccc(-c2cc3cc(C(=O)NC(CN(c4ccccc4)c4ncccn4)C(N)=O)ccc3[nH]2)n1 (stereo not drawn) [Example 47, N-{1–Carbamoyl-2[(phenyl)pyrimidin-2-ylamino]ethyl}-2-(2-methylaminopyrimidin-4-yl)-1H-indole-5-carboxamide] |  |

The remaining lines, values behind:

| SMILES | IC50 [3] [nM] | Specificity ratio [1] | also measured |
| --- | --- | --- | --- |
| CNc1nccc(-c2cc3cc(C(=O)N[C@@H](CN(c4ccccc4)c4ccccc4)c4n[nH]c(=O)o4)ccc3[nH]2)n1 [Example 28, N-[(S)-2-Diphenylamino-1-(5-oxo-4,5-dihydro[1,3,4]oxadiazol-2-yl)ethyl]-2-(2-methylaminopyrimidin-4-yl)-1H-indole-5-carboxamide] |  |  | IC50 [1]: 82500 nM; plasma level, at most (maximum blood plasma level) [2]: 4300 ng/mL; AUC ([2]; mouse, plasma, po, read-out: exposure, measured as AUC=area under the curve): 5400 ng·h/mL |
| CNc1nccc(-c2cc3cc(C(=O)N[C@@H](CN(c4ccccc4)c4nccs4)C(N)=O)ccc3[nH]2)n1 [Example 42, N-[1–Carbamoyl-2-(phenylthiazol-2-ylamino)ethyl]-S-2-(2-methylaminopyrimidin-4-yl)-1H-indole-5-carboxamide] | 9 | >1110 |  |
| CNc1nccc(-c2cc3cc(C(=O)NC(CN(c4ccccc4)c4ncccn4)C(=O)NCCO)ccc3[nH]2)n1 (stereo not drawn) [Example 49, N-[1-(2-Hydroxyethylcarbamoyl)-2-(phenylpyrimidin-2-ylamino)ethyl]-2-(2-methylaminopyrimidin-4-yl)-1H-indole-5-carboxamide] | 35 |  |  |
| CNc1nccc(-c2cc3cc(C(=O)N[C@@H](CN(c4ccccc4)c4nccc(C(F)(F)F)n4)C(=O)O)ccc3[nH]2)n1 [Example 54, (S)-2-{[2-(2-Methylaminopyrimidin-4-yl)-1H-indole-5-carbonyl]amino}-3-[phenyl-(4-trifluoromethylpyrimidin-2-yl)amino]propionic Acid] | 3 | >3330 |  |
| CNc1nccc(-c2cc3cc(C(=O)NC(CN(c4ccc(F)cc4)c4ncc(C)cn4)C(N)=O)ccc3[nH]2)n1 (stereo not drawn) [Example 61, N-{1–Carbamoyl-2-[(4-fluorophenyl)-(5-methylpyrimidin-2-yl)amino]ethyl}-2-(2-methylaminopyrimidin-4-yl)-1H-indole-5-carboxamide] | 6 | >1650 |  |
| CNc1nccc(-c2nc3cc(C(=O)N[C@@H](CN(c4ccccc4)c4ccccc4)C(N)=O)ccc3[nH]2)n1 [Example 63] | 3 | >1000 |  |
| CNc1nccc(-c2nc3cc(C(=O)NC(CN(c4ccccc4)c4ncccn4)C(N)=O)ccc3[nH]2)n1 (stereo not drawn) [Example 65, N-{1–Carbamoyl-2-[(phenyl)pyrimidin-2-ylamino]ethyl}2-(2-methylaminopyrimidin-4-yl)-1H-benzimidazole-5-carboxamide] | 4 | >2500 |  |
| CNc1nccc(-c2nc3cc(C(=O)NC(CN(c4ccccc4)c4ccccn4)C(N)=O)ccc3[nH]2)n1 (stereo not drawn) [Example 67, N-{1–Carbamoyl-2-[(phenyl)pyridin-2-ylamino]ethyl}-2-(2-methylaminopyrimidin-4-yl)-1H-benzimidazole-5-carboxamide] | 2 | >5000 |  |
| CCN(C[C@H](NC(=O)c1ccc2[nH]c(-c3ccncc3)cc2c1)C(N)=O)c1ccccc1 [comparison compound] |  |  | maximum blood plasma level lower than with compound 28 ([4]; comparison compound 50 mg/kg vs compound 28 25 mg/kg, oral, mice): about 60%; plasma level, at most (maximum blood plasma level) ([4]; male NMRI mice, about 50 mg/kg orally as suspension in 0.5% HEC, sampling 0.25-8 hours): 1500 ng/mL; AUC ([4]; mouse, plasma, po, male NMRI mice, about 50 mg/kg orally as suspension in 0.5% HEC, sampling 0.25-8 hours, read-out: exposure, measured as the AUC=area under the curve): 1700 ng·h/mL; IC50 [1]: 46400 nM; ratio of the IC50 values for protein tyrosine kinase relative to IκB kinase ([1]; for the comparison compound the IκB kinase IC50 is taken from WO 01/30774): 46.35 |
